Source: ChEMBL document CHEMBL1201862, “PubChem BioAssay data set” (2004)
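1) Cells in 96-well plates. 2) Compound, 48 h, 5 concentrations. 3) Linear interpolation between surrounding doses. 4) Unreached endpoint = highest concentration. The concentration for 50% growth inhibition is given as GI50.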 Calls of active or inactive are those of the source. No stated cut-off is given here; in the data, active = GI50 up to about 1.1 µM and inactive = higher.

Key:
Assay in all cases: NCI anticancer screen, dose series, 48 h
786-0 = system: 786-0
A498 = system: A498
A549 = system: A549
ACHN = system: ACHN
BT-549 = system: BT-549
CAKI-1 = system: CAKI-1
COLO 205 = system: COLO 205
DU-145 = system: DU-145
EKVX = system: EKVX
HCC 2998 = system: HCC 2998
HCT-116 = system: HCT-116
HCT-15 = system: HCT-15
HL-60 = system: HL-60
HOP-62 = system: HOP-62
HOP-92 = system: HOP-92
HT-29 = system: HT-29
Hs-578T = system: Hs-578T
IGROV-1 = system: IGROV-1
K562 = system: K562
KM12 = system: KM12
LOX IMVI = system: LOX IMVI
M14 = system: M14
MCF7 = system: MCF7
MDA-MB-231 = system: MDA-MB-231
MDA-MB-435 = system: MDA-MB-435
MDA-N = system: MDA-N
MOLT-4 = system: MOLT-4
Malme-3M = system: Malme-3M
NCI-H226 = system: NCI-H226
NCI-H23 = system: NCI-H23
NCI-H460 = system: NCI-H460
NCI-H522 = system: NCI-H522
NCI/ADR-RES = system: NCI/ADR-RES
OVCAR-3 = system: OVCAR-3
OVCAR-4 = system: OVCAR-4
OVCAR-5 = system: OVCAR-5
OVCAR-8 = system: OVCAR-8
PC-3 = system: PC-3
RPMI-8226 = system: RPMI-8226
RXF 393 = system: RXF 393
SF-268 = system: SF-268
SF-295 = system: SF-295
SF-539 = system: SF-539
SK-MEL-28 = system: SK-MEL-28
SK-MEL-2 = system: SK-MEL-2
SK-OV-3 = system: SK-OV-3
SN12C = system: SN12C
SNB-19 = system: SNB-19
SNB-75 = system: SNB-75
SR = system: SR
SW-620 = system: SW-620
T47D = system: T47D
TK-10 = system: TK-10
U-251 = system: U-251
UACC-257 = system: UACC-257
UACC-62 = system: UACC-62
UO-31 = system: UO-31

## O=C(NC1(C(=O)O)CC1c1ccccc1)c1ccccc1 (configuration not stated)
786-0
  GI50: > 100 µM (inactive)
A498
  GI50: > 100 µM (inactive)
A549
  GI50: > 100 µM (inactive)
ACHN
  GI50: > 100 µM (inactive)
BT-549
  GI50: > 100 µM (inactive)
CAKI-1
  GI50: > 100 µM (inactive)
COLO 205
  GI50: > 100 µM (inactive)
DU-145
  GI50: > 100 µM (inactive)
EKVX
  GI50: > 100 µM (inactive)
HCC 2998
  GI50: > 100 µM (inactive)
HCT-116
  GI50: > 100 µM (inactive)
HCT-15
  GI50: > 100 µM
HL-60
  GI50: > 100 µM (inactive)
HOP-62
  GI50: > 100 µM (inactive)
HOP-92
  GI50: > 100 µM (inactive)
HT-29
  GI50: > 100 µM (inactive)
Hs-578T
  GI50: > 100 µM (inactive)
IGROV-1
  GI50: > 100 µM (inactive)
K562
  GI50: > 100 µM (inactive)
KM12
  GI50: > 100 µM (inactive)
LOX IMVI
  GI50: > 100 µM (inactive)
M14
  GI50: > 100 µM (inactive)
MCF7
  GI50: > 100 µM (inactive)
MDA-MB-231
  GI50: > 100 µM (inactive)
MDA-MB-435
  GI50: > 100 µM (inactive)
MDA-N
  GI50: > 100 µM (inactive)
MOLT-4
  GI50: > 100 µM (inactive)
Malme-3M
  GI50: > 100 µM (inactive)
NCI-H226
  GI50: > 100 µM (inactive)
NCI-H23
  GI50: > 100 µM (inactive)
NCI-H460
  GI50: > 100 µM (inactive)
NCI-H522
  GI50: > 100 µM (inactive)
NCI/ADR-RES
  GI50: > 100 µM (inactive)
OVCAR-3
  GI50: > 100 µM (inactive)
OVCAR-4
  GI50: > 100 µM (inactive)
OVCAR-5
  GI50: > 100 µM (inactive)
OVCAR-8
  GI50: > 100 µM (inactive)
PC-3
  GI50: > 100 µM (inactive)
RPMI-8226
  GI50: > 100 µM (inactive)
RXF 393
  GI50: > 100 µM (inactive)
SF-268
  GI50: > 100 µM (inactive)
SF-295
  GI50: > 100 µM (inactive)
SF-539
  GI50: > 100 µM (inactive)
SK-MEL-28
  GI50: > 100 µM (inactive)
SK-MEL-2
  GI50: > 100 µM (inactive)
SK-OV-3
  GI50: > 100 µM (inactive)
SN12C
  GI50: > 100 µM (inactive)
SNB-19
  GI50: > 100 µM (inactive)
SNB-75
  GI50: > 100 µM (inactive)
SR
  GI50: > 100 µM (inactive)
SW-620
  GI50: > 100 µM (inactive)
T47D
  GI50: > 100 µM (inactive)
TK-10
  GI50: > 100 µM (inactive)
U-251
  GI50: > 100 µM (inactive)
UACC-257
  GI50: > 100 µM (inactive)
UACC-62
  GI50: > 100 µM (inactive)
UO-31
  GI50: > 100 µM (inactive)
